These results are taken from patent US5753636A, “Injection solution for intramuscular and subcutaneous administration to animals” (priority 1993, dated 1998).

Like-named read-outs stand apart in the source and are kept apart here.

The test system of series [1] is injection site. The conditions noted are these: in vivo.
For series [2], the system named is injection site. As to conditions: cited from earlier work.
Series [3] deals with injection site. Put plainly: Local tolerability / irritation at the injection site, general statements. As to conditions: applicant's statement.
The mark [4] stands for this setting: statement on known products, solvents or bases.

In the case of `[O]=[Mg]` [MgO, Magnesium oxide], the “local tolerability / irritation” value with injection site [1] is recorded as “irritant for tissue”. In the case of `NCCO` [monoethanolamine], in the series with injection site [2] (setting [4]), the “local tolerability / irritation” value is “very irritant”.

Consider `CC(O)CO` (centres unmarked) [1,2-propanediol], for which the “local tolerability / irritation” value in the series with injection site [2] (setting [4]) was “highly irritant and have haemolytic effects”. As to `N=C(N)NCCC[C@H](N)C(=O)O` [L-arginine], the “local tolerability / irritation” value in the series with injection site [3] is listed as “excellent local tolerability”. On the same count and under the same terms, as for `NCCCC[C@H](N)C(=O)O` [L-lysine], the entry is “excellent local tolerability”; as for `NCCC[C@H](N)C(=O)O` [L-ornithine], “excellent local tolerability”. Regarding polyethylene glycol, the “local tolerability / irritation” value in the series with injection site [2] (in vivo) is “highly irritant and have haemolytic effects”. As for `OCCNCCO` [diethanolamine], in the series on injection site [2] (in vivo), the “local tolerability / irritation” value was “very irritant”.
